According to patent US20260053767A1, “Hepatoprotective Compositions And Methods” (Jemyll, Ltd., priority 2022, published 2026):
Entries after “also recorded” stand apart in the source; their conditions may differ.

How the values were obtained:
SIRT3 = SIRT3 in endothelial cells; assay type: cell-based; details: EOMA endothelial cells
Excerpt: To that end, the inventors used endothelial cells (EOMA cells) and liver cells (AML-12 cells) in vitro and quantified various markers in response to exposure of the cells to environmental challenge in the presence and absence of DDA at low concentrations. Unless indicated otherwise, the DDA concentration in the in vitro experiments was 5 mcg per microliter. More specifically, the inventors measured p-H2AX protein levels as a marker for DNA damage, PGC-1α protein levels as a marker for mitochondrial biogenesis, NAMPT enzyme levels as a marker for potential for NAD+ production, and total antioxidant capacity as a marker of cellular health. In addition, the inventors also measured global SIRT activity as a gauge of activity for all SIRT enzymes, and in particular SIRT1 enzyme levels as markers for autophagy and various beneficial processes associated with a caloric restricted diet, and SIRT3 levels as markers for mitochondrial function and longevity.
In yet a further series of experiments, the inventors also sought to confirm whether or not DDDA would have a modulatory effect in endothelial cells using the same markers and experimental conditions as noted above.
N=5-6 plates per treatment.

Wistar rats [1] = experiment: Study 1 (prevention): oral glucose tolerance test and HOMA-IR; assay type: in vivo; details: Study 1: 1% (w/vol) in drinking water with high fat-high cholesterol diet for 4 weeks
Procedure: (§1) Study design: All animal procedures were approved by the Catholic University of Rome Institutional Animal Care Committee. The design of the studies is summarized in FIG. 18, Panels A and B. • Study 1: Twenty adult Wistar rats, aged 8-10 weeks, were included in the study. The rats were housed in individual cages at 22° C. with 12-h light cycles and had ad libitum access to food and water. Rats were fed a high-fat high-cholesterol diet (44% Carbohydrate, 14% Protein, 42% fat+0.2% Cholesterol) (Mucedola, Milan, IT) for four weeks in the presence or absence of 1% Dodecanedioic acid, sodium salt (w/vol) dissolved in the water (FIG. 18, Panel A). Body weight and food/water intake were monitored weekly. • Study 2: Twenty adult Wistar rats, aged 8-10 weeks, were included in the study. The rats were housed in individual cages at 22° C. with 12-h light cycles and had ad libitum access to food and water. Rats were fed a high-fat high-cholesterol diet (44% Carbohydrate, 14% Protein, 42% fat+0.2% Cholesterol) (Mucedola, Milan, IT). After nine weeks of diet, rats were randomly assigned to one of the following groups: Four weeks of high-fat high-cholesterol diet or four weeks of high-fat high-cholesterol diet and 1% Dodecanedioic acid, sodium salt (w/v) dissolved in the water FIG. 18, Panel B). Body weight and food/water intake were monitored weekly.
Oral Glucose Test Tolerance (OGTT): All animals underwent an OGTT at the end of the study. After an overnight fasting, the rats received a 50% D-glucose solution (1 g/kg body weight) by oral gavage. Blood samples were taken by tail bleeding and collected in EDTA tubes. All blood samples were immediately centrifuged, and plasma divided into appropriate subsamples and stored at −20° C. for further analysis. Blood glucose and was measured at 0, 20, 40, 60, 80, 100 and 120 minutes, while plasma insulin at 0, 60 and 120 minutes. Blood glucose levels were measured by glucometer (Accu-Chek, Roche Diagnostics Division, Grenzacherstrasse, CH). Plasma insulin was measured by ELISA (EMD Millipore Corporation, Billerica, MA), with a sensitivity of 0.1 ng/ml and an intra-and inter-assay precision of 1.9% and 7.6%, respectively.
DODA administration prevents the onset of insulin resistance and NASH: To test the hypothesis that DODA could prevent the development of diet-induced insulin resistance and NASH, the inventors administered 1% (w/vol) of DODA in the drinking water together with a high fat-high cholesterol diet for 4 weeks. Rats fed high fat-high cholesterol diet without the administration of DODA were included as controls.
Panels A and B. • Study 1: Twenty adult Wistar rats, aged 8-10 weeks, were included in the study. The rats were housed in individual cages at 22° C. with 12-h light cycles and had ad libitum access to food and water. Rats were fed a high fat high cholesterol diet (44% Carbohydrate, 14% Protein, 42% fat+0.2% Cholesterol) for 4 weeks in the presence or absence of 1% Dodecanedioic acid, sodium salt dissolved in the water (FIG. 25, Panel A). Body weight and food/water intake were monitored weekly. • Study 2: Twenty adult Wistar rats, aged 8-10 weeks, were included in the study. The rats were housed in individual cages at 22° C. with 12-h light cycles and had ad libitum access to food and water. Rats were fed a high fat-high cholesterol diet (44% Carbohydrate, 14% Protein, 42% fat+0.2% Cholesterol). […] Body weight and food/water intake were monitored weekly. […]

Wistar rats [2] = experiment: Study 1 (prevention): liver histology (H&E, Oil Red O, Sirius Red); assay type: in vivo; details: Study 1, 4 weeks, 1% (w/vol) in drinking water
Procedure: as §1
Histology: The day of the sacrifice fresh portions of liver were cut, embedded in cryo-embedding media (OCT) and snap frozen in liquid nitrogen. Biopsies were cut using a cryostat (5 μm) and slides stored a −20° C. until analyses.
Hematoxylin and Eosin staining was performed to assess hepatic steatosis. Slides were fixed 10 minutes with 95% ethanol, stained with hematoxylin for 1 minute, washed with distilled water, stained with eosin for 30 seconds and cleared in two changes of pure ethanol and two changes of xylene.
Oil Red O was performed to assess intracellular lipid accumulation. Slides were fixed overnight with 4% formalin, stained with Oil Red O solution for 1 hour. Counterstain was performed with Hematoxylin solution.
Sirius Red was used to identify hepatic fibrosis. Slides were fixed 10 minutes with 4% formalin, stained in Direct red 80 for 1 hour, washed in acidified water and dehydrate in 3 changes of absolute ethanol. After brief clearing in xylene, the slides were mounted in a resinous medium. Images were taken with an optical microscope (Leica DM2000, Wetzlar, DE). […]
Panels A and B. • Study 1: Twenty adult Wistar rats, aged 8-10 weeks, were included in the study. […] Body weight and food/water intake were monitored weekly. • Study 2: Twenty adult Wistar rats, aged 8-10 weeks, were included in the study. […] Body weight and food/water intake were monitored weekly. […]

## O=C(O)CCCCCCCCCCC(=O)O [DDDA, dodecanedioic acid]
SIRT3; 24 hours
  SIRT3: significant decline
SIRT3; acute (6-hour data)
  SIRT3: strong and acute increase
Wistar rats [1]; vs controls
  blood glucose concentrations during an oral glucose tolerance test: decrease
  hepatic insulin resistance assessed by HOMA-IR: decreased
  plasma insulin concentrations during an oral glucose tolerance test: decrease
Wistar rats [1]; listed as C12
  diet-induced insulin resistance and NASH (overall, prevention): able to prevent diet-induced insulin resistance and NASH; also recorded: prevents diet-induced insulin resistance and NASH
Wistar rats [1]; listed as DODA
  diet-induced insulin resistance and NASH (overall, prevention): able to prevent diet-induced insulin resistance and NASH; also recorded: prevents diet-induced insulin resistance and NASH
Wistar rats [2]
  diet-induced NASH (histology, prevention): prevents diet-induced NASH
  fibrosis (Picro Sirius Red): reduced
  hepatic steatosis (Hematoxylin and Eosin): reduced
  neutral lipids deposition (Oil Red O): reduced
